Source: patent US8258114B2, “Modulation of glucose-6-phosphatase translocase expression” (Isis Pharmaceuticals, Inc., priority 2004, dated 2012)
Where two headings read alike, the source gives them in different places.

Columns and labels:
[1] = system: catalytic subunit of glucose-6-phosphatase (G6PC) mRNA; experiment: Reduction of catalytic subunit of glucose-6-phosphatase (G6PC) mRNA in liver or kidney of ZDF rats (Table 15); format: in vivo, rat; conditions: Rattus norvegicus, rosiglitazone alone 3 mg/kg daily in food
Experimental: (§1) Saline-injected animals served as a control treatment group.
At the end of the treatment period, animals were sacrificed and target reduction in liver and kidney were measured by real-time PCR as described in other examples herein. Also measured were reductions in the catalytic subunit of glucose-6-phosphatase (G6PC) using a primer-probe set designed to hybridize to that mRNA. For example, the following primer-probe set was designed to hybridize to rat glucose-6-phosphatase translocase sequences cited in Table 1:
Results for each treatment group are shown in Table 15 as the average percent reduction in glucose-6-phosphatase translocase levels or in G6PC as compared to saline treated control.

[2] = Liver transaminases ALT and AST in ZDF rats; conditions: week 5
Experimental: (§2) Male Zucker fa/fa rats, about 17 to 18 weeks of age, purchased from Charles River Laboratories (Wilmington, Mass.), are maintained on a normal rodent diet. Animals are placed into treatment groups of 8 animals each. […] Another treatment group received the food-administered daily doses of 3 mg/kg of rosiglitazone alone. Saline-injected animals served as a control treatment group.
The liver transaminases, ALT and AST, were measured throughout the study.

[3] = system: rat glucose-6-phosphatase translocase mRNA; experiment: Reduction of glucose-6-phosphatase translocase mRNA in liver or kidney of ZDF rats (Table 15); format: in vivo; conditions: Rattus norvegicus, rosiglitazone alone 3 mg/kg daily in food
Experimental: Saline-injected animals served as a control treatment group. At the end of the treatment period, animals were sacrificed and target reduction in liver and kidney were measured by real-time PCR as described in other examples herein. […] For example, the following primer-probe set was designed to hybridize to rat glucose-6-phosphatase translocase sequences cited in Table 1: Forward primer: [NT] (incorporated herein as SEQ ID NO: 339) Reverse primer: [NT] (incorporated herein as SEQ ID NO: 340) PCR probe: […] (incorporated herein as SEQ ID NO: 341), where FAM is the fluorescent dye and TAMRA is the quencher dye.

[4] = Body fat percentage by MRI in Zucker rats (Table 19); conditions: for % Fat: MRI, rosiglitazone alone 3 mg/kg daily
Experimental: as §2
Also monitored throughout the study was body composition. Baseline body composition was measured by MRI prior to the start of treatment (BL). Body composition was also measured during week 3 (Wk 3) and during week 5 (Wk 5) of treatment.

[5] = Plasma lipids (cholesterol, triglycerides, free fatty acids) in ZDF rats (Table 21); format: in vivo, rat
Experimental: as §1
To further assess the physiological effects resulting from inhibition of target mRNA with antisense oligonucleotide alone or in combination with rosiglitazone, the rats were evaluated throughout the treatment period for plasma free fatty acids, plasma cholesterol, and plasma triglyceride levels. Free fatty acids, triglycerides and cholesterol were measured by routine clinical analyzer instruments (e.g. Olympus Clinical Analyzer, Melville, N.Y.). Glucose levels were measured using a glucose analyzer, for example a YSI glucose analyzer (YSI Scientific, Yellow Springs, Ohio).

[6] = Body weights of ZDF rats (Table 18); conditions: for Body weight: rosiglitazone alone 3 mg/kg daily
aged Zucker fa/fa rats = experiment: Oral glucose tolerance test in ZDF rats (Table 17); format: in vivo, rat; conditions: week 3, rosiglitazone alone 3 mg/kg daily
Experimental: as §1
To further evaluate the effects of ISIS 366228 alone or in combination with rosiglitazone, oral glucose tolerance tests were performed during the third week of treatment. To provide a baseline glucose level, fasted blood glucose levels were measured before the challenge. Glucose was administered by oral gavage via an 18 gauge gavage needle at a dose of 1 g/kg. Plasma glucose levels were measured for 15, 30, 60, 90, and 120 minutes post-challenge, using a glucose analyzer (for example, an Ascencia Glucometer Elite XL, Bayer, Tarrytown, N.Y.).

[7] = Plasma glucose levels of ZDF rats, alone or in combination with rosiglitazone (Table 16); format: in vivo, rat; conditions: rosiglitazone alone 3 mg/kg daily
Experimental: as §1
Plasma glucose levels were evaluated at the beginning of the study (Wk 0), during the first week of treatment (Wk 1), during the third week of treatment (Wk 3), and during the fifth week of treatment (Wk 5).

[8] = Tissue weights (kidney, spleen, liver, fat pad) of ZDF rats (Table 20); conditions: end of study, rosiglitazone alone
Experimental: Male Zucker fa/fa rats, about 17 to 18 weeks of age, purchased from Charles River Laboratories (Wilmington, Mass.), are maintained on a normal rodent diet. Animals are placed into treatment groups of 8 animals each. One treatment group was dosed subcutaneously twice weekly with 12.5 mg/kg of ISIS 366228 (SEQ ID NO: 203). Another treatment group was dosed twice weekly with 25 mg/kg of ISIS 366228. Other treatment groups were dosed with 12.5 mg/kg or 25 mg/kg ISIS 366228 twice weekly in combination with daily 3 mg/kg doses of rosiglitazone (Rosi) administered in powdered food. Another treatment group received the food-administered daily doses of 3 mg/kg of rosiglitazone alone. Saline-injected animals served as a control treatment group.
Tissue weights were also determined at the end of the study.

body fat percentage (in words) [4]: resulted in increased body fat
% Fat ([4]; BL (baseline)): 24%
% Fat ([4]; Wk 3): 32%
% Fat ([4]; Wk 5): 36%
Fat pad weight [8]: 9 grams
Kidney weight [8]: 4 grams
Liver weight [8]: 21 grams
Spleen weight [8]: 0.6 grams
SMILES: CN(CCOc1ccc(CC2SC(=O)NC2=O)cc1)c1ccccn1 (stereo not shown) [Rosiglitazone, rosiglitazone, reference compound]
inhibition at 3 mg/kg ([1]; read-out: % Inhibition of G6PC, Kidney): 5%
inhibition at 3 mg/kg ([1]; read-out: % Inhibition of G6PC, Liver): 63%
liver transaminases ALT and AST (in words) [2]: reductions in levels of these indicators of liver function
inhibition at 3 mg/kg ([3]; read-out: % Inhibition of glucose-6-phosphatase translocase, Kidney): 0%
inhibition at 3 mg/kg ([3]; read-out: % Inhibition of glucose-6-phosphatase translocase, Liver): 46%
plasma cholesterol (CHOL) ([5]; Wk 0, rosiglitazone alone): 202 mg/dL
plasma triglycerides (TRIG) ([5]; Wk 0, rosiglitazone alone): 478 mg/dL
plasma cholesterol (CHOL) ([5]; Wk 1, rosiglitazone alone): 217 mg/dL
plasma triglycerides (TRIG) ([5]; Wk 1, rosiglitazone alone): 300 mg/dL
plasma cholesterol (CHOL) ([5]; Wk 3, rosiglitazone alone): 220 mg/dL
plasma triglycerides (TRIG) ([5]; Wk 3, rosiglitazone alone): 327 mg/dL
plasma cholesterol (CHOL) ([5]; Wk 5, rosiglitazone alone): 234 mg/dL
plasma triglycerides (TRIG) ([5]; Wk 5, rosiglitazone alone): 384 mg/dL
body weight (in words) [6]: associated with increased body weight
Body weight ([6]; Wk 0): 404 g
Body weight ([6]; Wk 1): 422 g
Body weight ([6]; Wk 2): 444 g
Body weight ([6]; Wk 3): 453 g
Body weight ([6]; Wk 4): 465 g
plasma glucose, OGTT (aged Zucker fa/fa rats; 0 min (fasted)): 251 mg/dL
plasma glucose, OGTT (aged Zucker fa/fa rats; 15 min): 429 mg/dL
plasma glucose, OGTT (aged Zucker fa/fa rats; 30 min): 490 mg/dL
plasma glucose, OGTT (aged Zucker fa/fa rats; 60 min): 417 mg/dL
plasma glucose, OGTT (aged Zucker fa/fa rats; 90 min): 409 mg/dL
plasma glucose, OGTT (aged Zucker fa/fa rats; 120 min): 384 mg/dL
Plasma glucose ([7]; Wk 0): 570 mg/dL
Plasma glucose ([7]; Wk 1): 462 mg/dL
Plasma glucose ([7]; Wk 3): 487 mg/dL
Plasma glucose ([7]; Wk 5): 498 mg/dL
